Measurements reported in patent publication US20110105515A1, “TARGETING THE ONCOPROTEIN NUCLEOPHOSMIN” (President and Fellows of Harvard College, priority 2007, published 2011).

Legend:
[1] = system: COLO 205; details: COLO 205 (Colon Cancer), 48 hours, SRB
[2] = system: MDA-MB-435; experiment: cells; details: Homo sapiens, MDA-MB-435, 48 h; for CC50: read-out: LC50
[3] = system: EKVX; details: EKVX (Non-Small Cell Lung Cancer), 48 hours, SRB
[4] = system: ACHN; details: ACHN (Renal Cancer), 48 hours, SRB
[5] = system: OVCAR-4; experiment: cells; details: Homo sapiens, OVCAR-4, 48 h
[6] = system: A549/ATCC; details: A549/ATCC (Non-Small Cell Lung Cancer), 48 hours, SRB
[7] = system: NCI-H460; details: NCI-H460 (Non-Small Cell Lung Cancer), 48 hours, SRB
[8] = system: MDA-MB-231/ATCC; details: MDA-MB-231/ATCC (Breast Cancer), 48 hours, SRB
[9] = system: UACC-257; details: UACC-257 (Melanoma), 48 hours, SRB
[10] = system: RXF 393; details: RXF 393 (Renal Cancer), 48 hours, SRB
[11] = system: MDA-MB-435; details: MDA-MB-435 (Breast Cancer), 48 hours, SRB
[12] = system: NCI-H522; experiment: cells; details: Homo sapiens, NCI-H522, 48 h; for CC50: read-out: LC50
[13] = system: RPMI-8226; details: RPMI-8226 (Leukemia), 48 hours, SRB
[14] = system: SR; details: SR (Leukemia), 48 hours, SRB
[15] = system: A498; experiment: cells; details: Homo sapiens, A498, 48 h; for CC50: read-out: LC50
[16] = system: K-562; details: K-562 (Leukemia), 48 hours, SRB
[17] = system: NCI-H460; experiment: cells; details: Homo sapiens, NCI-H460, 48 h
[18] = system: SNB-19; details: SNB-19 (CNS Cancer), 48 hours, SRB
[19] = system: LOX IMVI; details: LOX IMVI (Melanoma), 48 hours, SRB
[20] = system: OVCAR-8; experiment: cells; details: Homo sapiens, OVCAR-8, 48 h; for CC50: read-out: LC50
[21] = system: NCI/ADR-RES; details: NCI/ADR-RES (Breast Cancer), 48 hours, SRB
[22] = system: TK-10; details: TK-10 (Renal Cancer), 48 hours, SRB
[23] = system: HOP-62; details: HOP-62 (Non-Small Cell Lung Cancer), 48 hours, SRB
[24] = system: OVCAR-4; details: OVCAR-4 (Ovarian Cancer), 48 hours, SRB
[25] = system: SF-295; details: SF-295 (CNS Cancer), 48 hours, SRB
[26] = system: 786-0; details: 786-0 (Renal Cancer), 48 hours, SRB
[27] = system: UO-31; details: UO-31 (Renal Cancer), 48 hours, SRB
[28] = system: TK-10; experiment: cells; details: Homo sapiens, TK-10, 48 h; for CC50: read-out: LC50
[29] = system: PC-3; details: PC-3 (Prostate Cancer), 48 hours, SRB
[30] = system: SW-620; details: SW-620 (Colon Cancer), 48 hours, SRB
[31] = system: M14; details: M14 (Melanoma), 48 hours, SRB
[32] = system: OVCAR-8; details: OVCAR-8 (Ovarian Cancer), 48 hours, SRB

Structure (SMILES) | TGI [1] | GI50 [2] | CC50 [2] | TGI [3] | TGI [4] | GI50 [5] | TGI [6] | TGI [7] | TGI [8] | TGI [9] | TGI [11] | GI50 [12] | CC50 [12] | TGI [13] | TGI [14] | GI50 [15] | CC50 [15] | TGI [16] | GI50 [17] | TGI [18] | further results
[2H]On1c2c(c3ccc4c(c31)C=CC(C)(C)O4)C(OC([2H])([2H])[2H])[C@@]13NC(=O)C4(CCCN4C1=O)CC3C2(C)C (some centres unmarked) [Deuterated Methanol Adduct] | 1450 nM | 395 nM | 4.72 µM | 1.97 µM | 2.53 µM | 373 nM | 2.99 µM | 3.6 µM | 1.83 µM | 1.89 µM | 1.77 µM | 431 nM | 4820 nM | 298 nM | 1250 nM | 1020 nM | 4.82 µM | 3.07 µM | 1800 nM | 2.31 µM | CC50 ([5]; read-out: LC50): 4.14 µM; TGI [10]: 625 nM; CC50 ([17]; read-out: LC50): 7.17 µM; TGI [19]: 2.14 µM; GI50 [20]: 960 nM; CC50 [20]: 4.77 µM; TGI [21]: 9.95 µM; TGI [22]: 2.35 µM; TGI [23]: 7.03 µM; TGI [24]: 1.63 µM; TGI [25]: 2.73 µM; TGI [26]: 2.46 µM; TGI [27]: 1.84 µM; GI50 [28]: 1070 nM; CC50 [28]: 5.15 µM; TGI [29]: 2.02 µM; TGI [30]: 1540 nM; TGI [31]: 2.5 µM; TGI [32]: 2.17 µM
Cc1cc(C)cc(-c2ccc3c(c2)[N+]([O-])=C2C3=C[C@@]34NC(=O)C5(CCCN5C3=O)CC4C2(C)C)c1 (some centres unmarked) [Biphenyl Analogue] | 259 nM | 166 nM | 1.41 µM | 1.11 µM | 0.618 µM | 237 nM | 0.834 µM | 1.18 µM | 1.05 µM | 1.36 µM | 0.44 µM | 66.2 nM | 1160 nM | 48.6 nM | 407 nM | 285 nM | 3.83 µM | 0.358 µM | 326 nM | 0.95 µM | TGI [19]: 0.273 µM; GI50 [20]: 277 nM; CC50 [20]: 3.3 µM; TGI [21]: 2.27 µM; TGI [22]: 0.955 µM; TGI [23]: 3.32 µM; TGI [24]: 1.72 µM; TGI [25]: 1.54 µM; TGI [26]: 0.398 µM; TGI [27]: 0.731 µM; GI50 [28]: 263 nM; CC50 [28]: 3.38 µM; TGI [30]: 349 nM; TGI [31]: 0.556 µM; TGI [32]: 1.03 µM
